In article PMC9478638 (Proceedings of the National Academy of Sciences of the …, 2022):

Key:
E. coli Dgt = biological target: T1, E. coli Dgt (Escherichia coli, UniProt P15723); experiment: PNP/xanthine oxidase coupled dGTPase assay, A297; format: biochemical
T1 sequence (P15723 1-505): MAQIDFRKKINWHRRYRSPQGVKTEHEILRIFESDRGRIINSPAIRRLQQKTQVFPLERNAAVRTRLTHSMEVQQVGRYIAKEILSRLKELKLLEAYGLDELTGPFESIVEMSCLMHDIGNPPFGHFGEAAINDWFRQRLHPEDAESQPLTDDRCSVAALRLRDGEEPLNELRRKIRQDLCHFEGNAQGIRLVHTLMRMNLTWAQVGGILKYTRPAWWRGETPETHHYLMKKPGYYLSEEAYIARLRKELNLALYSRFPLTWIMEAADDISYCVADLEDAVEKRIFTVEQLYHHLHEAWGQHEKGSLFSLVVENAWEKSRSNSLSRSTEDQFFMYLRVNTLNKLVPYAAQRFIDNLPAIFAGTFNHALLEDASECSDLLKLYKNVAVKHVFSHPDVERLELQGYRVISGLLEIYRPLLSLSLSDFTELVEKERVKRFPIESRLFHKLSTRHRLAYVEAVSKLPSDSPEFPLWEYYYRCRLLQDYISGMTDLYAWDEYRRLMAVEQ

Dgt–Gp1.2 complex = biological target: T2, Dgt–Gp1.2 complex (Escherichia coli; Escherichia phage T7, UniProt P03780+P15723); experiment: PNP/xanthine oxidase coupled dGTPase assay, A297; format: biochemical
T2 sequence (P15723 1-505): T1 sequence (P15723 1-505)
T2 sequence (P03780 2-85): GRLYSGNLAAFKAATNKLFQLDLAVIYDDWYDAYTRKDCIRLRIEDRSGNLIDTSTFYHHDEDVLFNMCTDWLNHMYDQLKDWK

Molecule `Nc1nc2c(ncn2[C@@H]2O[C@H](COP(=O)(O)OP(=O)(O)OP(=O)(O)O)[C@@H](O)[C@H]2O)c(=O)[nH]1` [GTP] has a Ki (E. coli Dgt) of 120 ± 50 µM and an IC50 (Dgt–Gp1.2 complex) of 0.31 ± 0.05 µM.
